# Where a name gives a salt, the structure may show the parent alone.
# Molecular target: AaDOP2 (Aedes aegypti, UniProt H6D5H2)
# Experiment: AaDOP2 antagonist screen of the LOPAC1280 library (HEK-CRELuc-Aadop2 cells, luminescence)
# Format: cell-based
# Settings: not given
# Sequence of AaDOP2 (H6D5H2 1-476): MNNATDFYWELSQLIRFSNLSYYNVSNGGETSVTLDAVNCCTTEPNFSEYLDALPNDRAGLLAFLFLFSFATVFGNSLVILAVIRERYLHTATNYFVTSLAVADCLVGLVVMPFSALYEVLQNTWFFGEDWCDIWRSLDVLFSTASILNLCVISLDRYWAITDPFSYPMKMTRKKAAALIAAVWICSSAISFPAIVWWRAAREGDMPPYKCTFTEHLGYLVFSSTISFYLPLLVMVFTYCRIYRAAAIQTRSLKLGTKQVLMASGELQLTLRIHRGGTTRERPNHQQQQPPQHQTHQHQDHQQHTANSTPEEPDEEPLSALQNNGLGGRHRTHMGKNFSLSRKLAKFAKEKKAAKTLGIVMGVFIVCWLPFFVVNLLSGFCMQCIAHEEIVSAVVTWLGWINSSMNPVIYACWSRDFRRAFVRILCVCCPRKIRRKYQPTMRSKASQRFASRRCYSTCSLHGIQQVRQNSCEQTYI
row,Compound,"Compound effect (percent receptor signaling in presence of test compound, relative lux units relative to the SCH23390 control)"
1,"c1ccc(C2CC2)c(OCC2=NCCN2)c1 [Compound 348, Cirazoline hydrochloride]",74
2,"Nc1ccncc1 [Compound 12, 4-Aminopyridine]",110
3,"Cn1c(=O)c2[nH]c(C3CCCC3)nc2n(C)c1=O [Compound 328, 8-Cyclopentyl-1,3-dimethylxanthine]",93
4,"COc1ccc2[nH]cc(CCNC(C)=O)c2c1 [Compound 775, Melatonin]",104
5,"Cl.OC1CCCCC1N1CCC(c2ccccc2)CC1 (racemic) [Compound 1259, (±)-Vesamicol hydrochloride]",97
6,"O=C1Cc2c([nH]c3ccc(Br)cc23)-c2ccccc2N1 [Compound 689, Kenpaullone]",17
7,"OC[C@H]1O[C@@H](n2cnc3c(NC4CCCC4)nc(Cl)nc32)[C@H](O)[C@@H]1O [Compound 338, 2-Chloro-N6-cyclopentyladenosine]",92
8,"COc1ccc2c3c1OC1C(=O)CC[C@@]4(O)[C@@H](C2)N(CC2CC2)CC[C@]314.Cl (single isomer, unassigned; (-)) [Compound 836, (-)-3-Methoxynaltrexone hydrochloride]",75
9,"O=C1c2c(O)cc(O)cc2O[C@H](c2ccc(O)c(O)c2)[C@H]1O (racemic) [Compound 1176, (±)-Taxifolin]",102
10,"NC(=O)c1cccc(N)c1 [Compound 21, 3-aminobenzamide]",96
11,"Cc1cccc(C)c1N=C1NCCCS1 [Compound 1269, Xylazine hydrochloride]",134
12,"C[N+](C)(C)CC#CCOC(=O)Nc1cccc(Cl)c1.[Cl-] [Compound 292, McN-A-343]",121
13,"N[C@@H](Cc1ccc(N(CCCl)CCCl)cc1)C(=O)O [Compound 744, Melphalan]",102
14,"C[C@]12CCC(=O)C(O)=C1CC[C@@H]1[C@@H]2CC[C@]2(C)C(=O)CC[C@@H]12 [Compound 63, 4-Androsten-4-ol-3,17-dione]",107
15,"CN1[C@@H]2CC[C@H]1CC(OC(=O)c1c[nH]c3ccccc13)C2.Cl (stereo partly shown) [Compound 1222, 3-Tropanyl-indole-3-carboxylate hydrochloride]",89
16,"CN1CCC(=C2c3ccccc3C=Cc3ccccc32)CC1 [Compound 281, Cyproheptadine hydrochloride]",86
17,"O=C(O)CC[N+](=O)[O-] [Compound 860, 3-Nitropropionic acid]",91
18,"O=C(O)/C(=C/c1c(C(=O)O)[nH]c2cc(Cl)cc(Cl)c12)c1ccccc1 [Compound 833, MDL 105,519]",83
19,"CC(=O)Oc1cc(C(C)C)c(OCCN(C)C)cc1C [Compound 773, Moxisylyte hydrochloride]",33

row,Compound,"Compound effect (percent receptor signaling in presence of test compound, relative lux units relative to the SCH23390 control)"
1,"CN(C)CCC(c1ccccc1)c1ccccn1 (stereo not shown) [Compound 963, Pheniramine maleate]",91
2,"COc1cc([C@@H]2c3cc4c(cc3[C@H](O)[C@H]3COC(=O)[C@H]23)OCO4)cc(OC)c1OC [Compound 941, Podophyllotoxin]",84
3,"CC[C@@H](CO)NC(=O)[C@@H]1C=C2c3cccc4[nH]cc(c34)C[C@H]2N(C)C1 [Compound 752, Methylergonovine maleate]",107
4,"Clc1ccccc1C(c1ccccc1)(c1ccccc1)n1ccnc1 [Compound 280, Clotrimazole]",77
5,"COCCc1ccc(OCC(O)CNC(C)C)cc1.COCCc1ccc(OCC(O)CNC(C)C)cc1.O=C(O)C(O)C(O)C(=O)O (racemic) [Compound 777, (±)-Metoprolol (+)-tartrate]",98
6,"O=C(O)CCCc1ccc(N(CCCl)CCCl)cc1 [Compound 215, Chlorambucil]",106
7,"Nc1ccc(N2C(=O)c3ccccc3C2=O)c(Cl)c1 [Compound 104, N-(4-Amino-2-chlorophenyl)phthalimide]",99
8,"C[C@@]1(C2CCCC2)Cc2cc(OCC(=O)O)c(Cl)c(Cl)c2C1=O [Compound 668, R(+)-IAA-94]",100
9,"O=C1CC2(CCCC2)CC(=O)N1CCCCN1CCN(c2ncccn2)CC1 [Compound 183, Buspirone hydrochloride]",83
10,"CN[C@@H]1C[C@@H](c2ccc(Cl)c(Cl)c2)c2ccccc21 [Compound 669, Indatraline hydrochloride]",54
11,"Cn1c(=O)c2[nH]c(-c3ccccc3)nc2n(C)c1=O [Compound 932, 1,3-Dimethyl-8-phenylxanthine]",107
12,"CNC[C@H](O)c1cccc(O)c1 [Compound 956, Phenylephrine hydrochloride]",93
13,"CC12CC3CC(C)(C1)CC(N)(C3)C2 [Compound 807, Memantine hydrochloride]",91
14,"CCn1cc(C(=O)O)c(=O)c2cc(F)c(N3CCNC(C)C3)c(F)c21 (stereo not shown) [Compound 700, Lomefloxacin hydrochloride]",90
15,"NCCS(=O)(=O)O [Compound 1146, Taurine]",101
16,"N[C@H]1CON=C1O [Compound 228, L-Cycloserine]",88
17,"CC1=C(CC(=O)O)c2cc(F)ccc2/C1=C\c1ccc([S+](C)[O-])cc1 (stereo not shown) [Compound 1115, Sulindac]",107
18,"COCCOC(=O)C1=C(C)NC(C)=C(C(=O)OC(C)C)C1c1cccc([N+](=O)[O-])c1 (stereo not shown) [Compound 882, Nimodipine]",102
19,"CCNC(=O)[C@H]1O[C@@H](n2cnc3c(N)nc(NCCc4ccc(CCC(=O)O)cc4)nc32)[C@H](O)[C@@H]1O.Cl [Compound 337, CGS-21680 hydrochloride]",112

# Same assay, conditions: 10 µM compound, 300 nM dopamine, 2 hr; hit = compound effect <20
row,Compound,"Compound effect (percent receptor signaling in presence of test compound, relative lux units relative to the SCH23390 control) [%]"
1,"CC(C(O)c1ccc(O)cc1)N1CCC(Cc2ccccc2)CC1.CC(C(O)c1ccc(O)cc1)N1CCC(Cc2ccccc2)CC1.O=C(O)C(O)C(O)C(=O)O (stereo not shown) [Compound 643, Ifenprodil tartrate]",64
2,"C/C(=C\c1ccc(C(=O)O)cc1)c1ccc2c(c1)C(C)(C)CCC2(C)C [Compound 1166, TTNPB]",98
3,(+)-Catechin Hydrate [Compound 230],111
4,"COc1cccc(OC)c1OCCNCC1COc2ccccc2O1.Cl (stereo not shown) [Compound 354, WB-4101 hydrochloride]",101
5,"NC(=S)c1ccc[n+]([C@@H]2OC(COP(=O)([O-])OP(=O)(O)OC[C@H]3O[C@@H](n4cnc5c(N)ncnc54)[C@H](OP(=O)(O)O)[C@@H]3O)C(O)C2O)c1 (stereo in doubt) [Compound 1183, Thio-NADP sodium]",84
6,"N[C@@H](Cc1ccc(F)cc1)C(=O)O [Compound 519, p-Fluoro-L-phenylalanine]",97
7,"CC(N)(Cc1ccc(O)c(O)c1)C(=O)O (racemic) [Compound 797, (±)-3-(3,4-dihydroxyphenyl)-2-methyl-DL-alanine]",99
8,"COc1c2c(nc3ccccc13)OC(C(C)(O)CO)C2 (stereo not shown) [Compound 411, Dubinidine]",100
9,"CCCCCCCC/C=C\CCCCCCCC(=O)NCCO [Compound 895, N-Oleoylethanolamine]",105
10,"CCN(CC)CCNC(=O)c1cc(Cl)c(N)cc1OC.Cl [Compound 733, Metoclopramide hydrochloride]",101
11,"Br.COc1ccccc1N1CCN(CCCCN2C(=O)c3ccccc3C2=O)CC1 [Compound 848, NAN-190 hydrobromide]",42
12,"Cl.Cl.Cl.Ic1ccc(N2CCN(Cc3c[nH]c4ncccc34)CC2)cc1 [Compound 729, L-750,667 trihydrochloride]",107
13,"CCN1CCc2nc(N)oc2CC1.Cl.Cl [Compound 210, B-HT 933 dihydrochloride]",79

# Same assay, conditions: read-out: % of the SCH23390 effect (percent inhibition of receptor response relative to the SCH23390 control)
row,Compound,inhibition at 10 µM [%]
1,"O=C1Cc2c([nH]c3ccc(Br)cc23)-c2ccccc2N1 [Compound 689, Kenpaullone]",83

# From paper PMC3265452 (PLoS Neglected Tropical Diseases, 2012)
